Where “and” joins values, the source holds several entries; their conditions need not be identical. Identical values can stand only once.
Biological target: T1, Human P2Y1-R (Homo sapiens, UniProt P47900)
T1 construct: expressed in transfected cells; host or cells: HEK293T/17
Experiment: Gαq protein activation BRET2 assay (Gαq-RLuc8/GFP2-Gγ2/Gβ1) in HEK293T cells expressing P2Y1-R
Type: cell-based
Conditions: for G protein signaling, Ligand-modulated BRET (% of maximum MRS2179 mean value): Figure 4a, individual replicates
Source text: As previously described, using a BRET^2 (bioluminescence resonance energy transfer)-based assay, we directly monitored the basal Gαq protein activation by measuring the interaction between Gαq and Gγ2 subunits of the Gαqβ1γ2 heterotrimer complex. Indeed, this assay is based on the non-radiative transfer between the Renilla reniformis luciferase (RLuc8) energy donor fused to the Gαq protein subunit and the fluorescent GFP2 energy acceptor fused to Gγ2 protein subunit (Fig. 1a). […] By contrast, ligand-independent constitutive receptor activation or agonist-induced receptor activation will promote Gαq/Gγ2 subunit dissociation, thereby leading to a decrease of the basal BRET signal (Fig. 1a). […] To preclude any P2Y1-R activation by a passive release of ADP by HEK293T cells, we performed similar experiments in the presence of high concentration of apyrase (0.2U/mL) to degrade any trace of ADP in the medium (Additional File 2: Fig. S2a). Under these conditions, P2Y1-R expression still induces a marked and significant decrease of the basal BRET signal compared to control cells (pcDNA3.1), thereby supporting a P2Y1-R-dependent constitutive activation of Gαq protein. […] Of note, because P2Y1-R and AT1-R were respectively Myc- and HA-tagged and were thus detected using different primary antibodies, their expression at the cell surface cannot be compared between each other’s.
Human P2Y1-R (NCBI Reference Sequence: NM_002563.2) and P2Y12-R (NCBI Reference Sequence: NM_022788.3) were fused to double Myc epitope and rat AT1-R (NCBI Reference Sequence: NM_030985.4) to HA tag in N-terminus extracellular region. Alternatively, receptors were also fused to Venus tag in C-terminus intracellular region. Plasmids encoding Gαq-RLuc8, GFP2-Gγ2 and untagged Gβ1 were previously described. ADP was purchased from Sigma-Aldrich/Merck (Darmstadt, Germany). […] The Gq inhibitor (FR900359) was kindly supplied by Evi Kostenis (University of Bonn. Germany).
G protein activation and β-arrestin 2 recruitment were performed as previously described. Briefly, vectors encoding receptors, Gαq-RLuc8, GFP2-Gγ2, Gβ1, or β-arrestin 2 were transiently cotransfected into HEK293T/17 cells as indicated in the figure legends. Forty-eight hours after transfection, cells were washed and resuspended in PBS containing 0.1% (w/v) glucose at room temperature and then distributed (80 μg proteins/well) in a 96-well microplate (PerkinElmer). For G protein activation experiments (BRET^2), cells were incubated in the absence (basal BRET signal) or in the presence of ligand for 1 minute. BRET signal between RLuc8 and GFP2 was measured after addition of the luciferase substrate coelenterazine 400a (5 μM). For β-arrestin 2 recruitment (BRET^1), cells were stimulated with ligands for 5 or 15 min. BRET signal was recorded after incubation with coelenterazine h (5 μM) for 8 min. For kinetics studies, BRET signal between RLuc and Venus was recorded at 20-s intervals at basal state for the 2 first minutes and then for 5 min after ligand injection. For saturation curves (BRET^1), the expression level of Venus- or RLuc-tagged protein was determined by direct measurement of total fluorescence and luminescence respectively. Total fluorescence was first measured with an excitation filter at 485 nm and an emission filter at 520 nm. Then, the same sample was incubated for 8 minutes with 5 μM coelenterazine h and the total luminescence was measured. BRET^2 and BRET^1 readings were collected using a modified Infinite F500 (Tecan Group Ltd). The BRET^2 signal was calculated by the ratio of emission of GFP2 (510–540 nm) to RLuc8 (370–450 nm) and the BRET^1 signal by the ratio of emission of Venus (520–570 nm) to RLuc (370–480 nm). […]

[1] = G protein signaling, Fig. 4a, 1 min

T1 sequence (P47900 whole entry): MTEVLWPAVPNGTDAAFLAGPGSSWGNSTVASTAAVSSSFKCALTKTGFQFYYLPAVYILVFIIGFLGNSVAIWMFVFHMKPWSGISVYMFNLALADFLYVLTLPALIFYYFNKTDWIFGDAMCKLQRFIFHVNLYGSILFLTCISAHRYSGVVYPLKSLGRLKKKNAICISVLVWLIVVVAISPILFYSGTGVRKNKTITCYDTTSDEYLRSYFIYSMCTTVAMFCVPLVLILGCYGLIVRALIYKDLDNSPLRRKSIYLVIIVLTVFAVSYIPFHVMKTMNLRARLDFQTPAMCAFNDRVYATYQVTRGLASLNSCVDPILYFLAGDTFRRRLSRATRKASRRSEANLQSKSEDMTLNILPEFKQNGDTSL

For CNc1nc(Cl)nc2c1ncn2[C@H]1CC(OP(=O)(O)O)[C@]2(COP(=O)(O)O)C[C@H]12 (stereo in doubt) [MRS2279], the “G protein signaling, Ligand-modulated BRET (% of maximum MRS2179 mean value)” value ([Ligand] 1.00E-04 M) was 129.138 % of maximum MRS2179 mean value and 120.304 % of maximum MRS2179 mean value and 127.2 % of maximum MRS2179 mean value and 111.359 % of maximum MRS2179 mean value and 120.336 % of maximum MRS2179 mean value and 114.718 % of maximum MRS2179 mean value, the “G protein signaling, Ligand-modulated BRET (% of maximum MRS2179 mean value)” value ([Ligand] 1.00E-05 M) was 65.0429 % of maximum MRS2179 mean value and 66.0702 % of maximum MRS2179 mean value and 71.1916 % of maximum MRS2179 mean value and 1.991 % of maximum MRS2179 mean value and 5.227 % of maximum MRS2179 mean value and 4.981 % of maximum MRS2179 mean value and the “G protein signaling, Ligand-modulated BRET (% of maximum MRS2179 mean value)” value ([Ligand] 1.00E-06 M) was 0.8906 % of maximum MRS2179 mean value and 4.044 % of maximum MRS2179 mean value and 23.8581 % of maximum MRS2179 mean value and -4.504 % of maximum MRS2179 mean value and -0.009097 % of maximum MRS2179 mean value and -7.368 % of maximum MRS2179 mean value. For the same compound, the “G protein signaling, Ligand-modulated BRET (% of maximum MRS2179 mean value)” value ([Ligand] 1.00E-07 M) was -9.195 % of maximum MRS2179 mean value and -17.2152 % of maximum MRS2179 mean value and -1.434 % of maximum MRS2179 mean value and -4.1872 % of maximum MRS2179 mean value and -11.6872 % of maximum MRS2179 mean value and -13.2576 % of maximum MRS2179 mean value, the “G protein signaling, Ligand-modulated BRET (% of maximum MRS2179 mean value)” value ([Ligand] 1.00E-08 M) was -19.0202 % of maximum MRS2179 mean value and -26.9343 % of maximum MRS2179 mean value and -6.222 % of maximum MRS2179 mean value and 4.642 % of maximum MRS2179 mean value and -7.159 % of maximum MRS2179 mean value and -5.465 % of maximum MRS2179 mean value and the “G protein signaling, Ligand-modulated BRET (% of maximum MRS2179 mean value)” value ([Ligand] 1.00E-09 M) was -11.1827 % of maximum MRS2179 mean value and -20.1662 % of maximum MRS2179 mean value and -5.932 % of maximum MRS2179 mean value and 1.161 % of maximum MRS2179 mean value and -4.3372 % of maximum MRS2179 mean value and -8.802 % of maximum MRS2179 mean value. The “G protein signaling, Ligand-modulated BRET (% of maximum MRS2179 mean value)” value ([Ligand] 1.00E-10 M) was -9.413 % of maximum MRS2179 mean value and -16.1844 % of maximum MRS2179 mean value and -3.46 % of maximum MRS2179 mean value and -2.408 % of maximum MRS2179 mean value and -4.624 % of maximum MRS2179 mean value and -8.503 % of maximum MRS2179 mean value, the EC50 [1] was 26.4 µM and the “pEC50 ± s.e.m.” value [1] was 4.579 ± 0.1247. For the same compound, the “Emax ± s.e.m.” value (G protein signaling, Fig. 4a, 1 min, normalized to the mean value of maximal MRS2179 response, in %) was 154.3 ± 13.86 and the “Behaviour on P2Y1-R-dependent constitutive Gαq protein activation” value (HEK293T cells, result in words) was “behaved as inverse agonists”.
